# According to publication PMC3933693, “Novel Inhibitors of Mitochondrial sn-Glycerol 3-phosphate Dehydrogenase” (PLoS ONE, 2014):
# Where “and” joins values, the source holds several entries; their conditions need not be identical. Equal values may be shown once.
# Columns and labels:
# mGPDH = biological target: T1, mGPDH (Rattus norvegicus, UniProt P35571); test: mGPDH enzymatic activity (DCPIP-linked reduction by glycerol phosphate) in frozen-thawed skeletal muscle mitochondria; assay type: biochemical
# T1 construct: from tissue; host or cells: skeletal muscle mitochondria
# T1 sequence (P35571 43-727): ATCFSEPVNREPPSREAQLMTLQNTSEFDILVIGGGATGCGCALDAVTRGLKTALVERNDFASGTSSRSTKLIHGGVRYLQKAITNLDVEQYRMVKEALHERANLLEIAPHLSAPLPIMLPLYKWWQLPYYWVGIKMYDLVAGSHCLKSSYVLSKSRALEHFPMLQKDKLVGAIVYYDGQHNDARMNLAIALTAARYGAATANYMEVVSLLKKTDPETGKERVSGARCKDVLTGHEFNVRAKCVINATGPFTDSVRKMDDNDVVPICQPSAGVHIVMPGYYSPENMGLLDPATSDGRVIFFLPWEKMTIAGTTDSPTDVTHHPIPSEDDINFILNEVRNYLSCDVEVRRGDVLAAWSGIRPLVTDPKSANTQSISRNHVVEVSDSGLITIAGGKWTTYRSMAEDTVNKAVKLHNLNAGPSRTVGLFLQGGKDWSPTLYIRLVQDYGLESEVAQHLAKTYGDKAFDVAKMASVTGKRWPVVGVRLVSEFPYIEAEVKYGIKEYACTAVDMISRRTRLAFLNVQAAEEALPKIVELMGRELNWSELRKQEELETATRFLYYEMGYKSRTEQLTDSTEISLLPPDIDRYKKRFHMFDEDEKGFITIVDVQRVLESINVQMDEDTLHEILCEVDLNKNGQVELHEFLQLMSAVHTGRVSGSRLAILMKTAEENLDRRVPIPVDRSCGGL
# Procedure: Activity of mGPDH in frozen-thawed skeletal muscle mitochondria was measured as 2,6-dichlorophenolindophenol (DCPIP)-linked reduction by glycerol phosphate as described previously in the presence of 1 µM free calcium. Linear rates of change in absorbance (λ = 600 nm) were measured on the PHERAstar microplate reader and converted to rates of DCPIP reduction using an extinction coefficient of 21 mM^−1 ⋅ cm^−1 and a calculated pathlength of 0.6 cm. Kinetic parameters and inhibitor constants were determined by co-varying glycerol phosphate and novel inhibitors according to recommended procedures and calculated for each data set using GraphPad Prism. Vmax and Km were determined using hyperbolic curves fit to the Michaelis-Menten equation: rate = (Vmax ⋅ [substrate]) ⋅ (K m+[substrate])^ −1. Hill Slope and IC50 were determined using unconstrained, sigmoidal dose-response curve fits of % remaining activity against concentration of iGP. K ic and K iu were determined using plots of rate^−1 vs iGP and GP ⋅ rate^−1 vs iGP, respectively. Linear regression analysis yielded an average x-coordinate at which the best-fit lines intersect. These x-coordinates correspond to -K ic and -K iu in their respective plots. The apparent Vmax of mGPDH is dependent upon the concentration of DCPIP used, [38]. Therefore, to determine the maximal activity of mGPDH in isolated synaptosomes, DCPIP was replaced by 1 mM potassium ferricyanide and linear rates of change in absorbance (λ = 420 nm) were converted to rates of ferricyanide reduction using an extinction coefficient of 1.04 mM^−1 ⋅ cm^−1 and a calculated pathlength of 0.6 cm.
# [1] = biological target: T2, flavin site of complex II (site IIF) (Rattus norvegicus, UniProt Q920L2); test: Site-specific H2O2 production from site IIF in skeletal muscle mitochondria; assay type: biochemical; settings: primary screen, ∼2.5 µM, average of duplicates; palmitoylcarnitine
# T2 construct: from tissue; host or cells: skeletal muscle mitochondria
# T2 sequence (Q920L2 35-656): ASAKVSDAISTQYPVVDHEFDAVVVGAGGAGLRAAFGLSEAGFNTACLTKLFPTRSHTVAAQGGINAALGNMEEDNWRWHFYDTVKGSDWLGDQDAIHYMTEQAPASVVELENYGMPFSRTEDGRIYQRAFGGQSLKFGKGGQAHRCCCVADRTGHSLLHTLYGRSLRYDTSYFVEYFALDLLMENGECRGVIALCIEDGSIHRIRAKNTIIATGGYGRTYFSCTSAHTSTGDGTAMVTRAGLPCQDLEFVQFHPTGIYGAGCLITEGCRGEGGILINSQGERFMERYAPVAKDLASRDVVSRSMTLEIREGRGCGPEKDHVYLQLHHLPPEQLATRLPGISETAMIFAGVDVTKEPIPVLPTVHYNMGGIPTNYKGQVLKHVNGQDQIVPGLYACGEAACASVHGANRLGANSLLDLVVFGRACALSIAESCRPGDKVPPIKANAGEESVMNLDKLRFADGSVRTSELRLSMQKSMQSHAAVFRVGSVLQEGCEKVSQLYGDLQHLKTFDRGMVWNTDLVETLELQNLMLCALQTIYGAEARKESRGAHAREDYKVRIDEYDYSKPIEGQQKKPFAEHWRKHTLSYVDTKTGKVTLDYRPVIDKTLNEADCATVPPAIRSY
# T2 sequence (P21913 31-282 partner): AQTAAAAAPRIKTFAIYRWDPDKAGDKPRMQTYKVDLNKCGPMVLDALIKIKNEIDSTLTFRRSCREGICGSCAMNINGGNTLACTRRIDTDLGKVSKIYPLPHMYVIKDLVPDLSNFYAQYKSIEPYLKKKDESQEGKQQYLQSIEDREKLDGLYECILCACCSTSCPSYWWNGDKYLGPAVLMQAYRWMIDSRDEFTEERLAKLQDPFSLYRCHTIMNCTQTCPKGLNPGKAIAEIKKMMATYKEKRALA
# T2 sequence (Q641Z9 30-169 partner limits assumed): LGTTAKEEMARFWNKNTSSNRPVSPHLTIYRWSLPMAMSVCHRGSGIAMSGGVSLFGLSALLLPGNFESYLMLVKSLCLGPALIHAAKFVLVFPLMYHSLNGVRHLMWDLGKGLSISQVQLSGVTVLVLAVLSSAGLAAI
# T2 sequence (Q6PCT8 57-159 partner): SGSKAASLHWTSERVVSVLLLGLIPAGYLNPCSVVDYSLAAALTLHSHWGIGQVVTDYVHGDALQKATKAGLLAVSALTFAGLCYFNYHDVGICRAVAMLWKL
# Summary of the method: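 Isolated rat skeletal muscle mitochondria; H2O2 read by Amplex UltraRed with added SOD and HRP. Site IF/DH: 5 mM glutamate, 5 mM malate, 4 µM rotenone. Site IIF: palmitoylcarnitine or succinate with rotenone/antimycin A/myxothiazol. Site IIIQo: succinate, rotenone, antimycin A. Screen at 2.5 µM, normalised as % change from DMSO.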
smiles,measurement,setting,value
O=C(O)CCC(=O)Nc1ccc(-c2nc3ccccc3[nH]2)cc1 [iGP-1],mGPDH Activity Hill Slope,mGPDH; 1 µM free calcium,0.92 and 0.92±0.08
same,IC50,"mGPDH; 1 µM free calcium, Fig. 9A",6.3 ± 0.7 µM
same,effect on mGPDH enzymatic activity,"mGPDH; all concentrations tested, Fig. 5",significantly inhibited
same,K iu (uncompetitive inhibitor dissociation constant),mGPDH; co-varying glycerol phosphate and inhibitor,14.6 ± 1.5 µM
same,Ki,"mGPDH; co-varying glycerol phosphate and inhibitor, read-out: K ic (competitive inhibitor dissociation constant)",9.5 ± 1.1 µM
same,IIF (% change from DMSO),[1],3.6%
